# Data published in article PMC9150076 (Journal of Medicinal Chemistry, 2022).
# Read-outs that look alike come from different tables or passages of the source.
# Legend:
# [1] = test system: active caspase-3 in PDAC3 cells; assay: Active caspase-3 immunoassay, PDAC3; assay type: cell-based, human; settings: PDAC3, compared to untreated cells
# [2] = test system: PDAC2 cells; settings: PDAC2, single agent
# [3] = test system: active caspase-3 in PDAC2 cells; assay: Active caspase-3 immunoassay, PDAC2; assay type: cell-based, human; settings: untreated 0.35
# [4] = target: MAGL (Mus musculus, UniProt O35678)
# Sequence of MAGL (O35678 whole entry): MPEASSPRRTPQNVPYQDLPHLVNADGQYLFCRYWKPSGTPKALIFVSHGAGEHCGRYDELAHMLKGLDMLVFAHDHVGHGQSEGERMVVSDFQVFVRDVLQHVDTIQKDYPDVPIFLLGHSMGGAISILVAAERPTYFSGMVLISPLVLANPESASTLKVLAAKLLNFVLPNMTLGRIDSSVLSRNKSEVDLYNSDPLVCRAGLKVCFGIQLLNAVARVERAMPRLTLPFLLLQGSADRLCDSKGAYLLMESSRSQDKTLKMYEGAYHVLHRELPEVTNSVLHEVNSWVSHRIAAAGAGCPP
# [5] = test system: PDAC3 cells; assay: Wound-healing/migration assay, PDAC3; assay type: cell-based, human; settings: PDAC3, 20 h, drug at 5× IC50; control 59 ± 8%
# [6] = target: T1, human MAGL (Homo sapiens, UniProt Q99685)
# T1 sequence (Q99685 1-303): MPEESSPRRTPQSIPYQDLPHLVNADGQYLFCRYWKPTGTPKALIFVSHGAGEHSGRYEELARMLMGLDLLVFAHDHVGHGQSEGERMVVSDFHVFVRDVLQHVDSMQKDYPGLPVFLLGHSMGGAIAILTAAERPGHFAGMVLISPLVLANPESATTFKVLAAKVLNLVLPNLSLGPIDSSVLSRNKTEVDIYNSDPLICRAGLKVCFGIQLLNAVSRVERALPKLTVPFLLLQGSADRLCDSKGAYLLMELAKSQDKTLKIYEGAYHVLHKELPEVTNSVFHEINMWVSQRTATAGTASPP
# [7] = test system: PDAC3 primary cell culture; assay: Growth inhibition, SRB assay, PDAC3; assay type: cell-based, human; settings: PDAC3, SRB
# [8] = target: T1, human MAGL; set-up: purchased Cayman Chemical; method as in PMID 33045662; settings: reference benzoylpiperidines; read-out: IC50 hMAGL; cited from earlier work
# [9] = target: T2, human FAAH (Homo sapiens, UniProt O00519); set-up: purchased Cayman Chemical; method as in PMID 33045662; settings: reference benzoylpiperidines; read-out: IC50 hFAAH; cited from earlier work
# T2 sequence (O00519 1-579): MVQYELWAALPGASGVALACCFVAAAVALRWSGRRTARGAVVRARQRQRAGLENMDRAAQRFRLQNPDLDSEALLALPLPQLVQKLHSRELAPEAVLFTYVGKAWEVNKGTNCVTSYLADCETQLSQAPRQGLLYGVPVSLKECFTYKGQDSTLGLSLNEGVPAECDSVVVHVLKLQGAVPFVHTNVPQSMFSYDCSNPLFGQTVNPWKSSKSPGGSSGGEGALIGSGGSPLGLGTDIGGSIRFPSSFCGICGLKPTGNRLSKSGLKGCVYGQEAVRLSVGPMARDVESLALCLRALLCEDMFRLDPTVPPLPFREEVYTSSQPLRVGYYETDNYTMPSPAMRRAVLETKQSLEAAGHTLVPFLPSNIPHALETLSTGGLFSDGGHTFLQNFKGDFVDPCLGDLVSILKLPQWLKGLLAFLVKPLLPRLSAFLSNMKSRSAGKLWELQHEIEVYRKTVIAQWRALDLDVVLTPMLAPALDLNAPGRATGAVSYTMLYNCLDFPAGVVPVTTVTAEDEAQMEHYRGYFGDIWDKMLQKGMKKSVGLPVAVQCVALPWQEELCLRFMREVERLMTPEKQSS
# [10] = Water solubility; assay type: physicochemical; settings: distilled water, room temperature
# Method: 6.9 software. Chromatographic separation was obtained using a Kinetex C18 column (150 × 4.6 mm) with a 5 μm particle size and gradient elution with a binary solution; (eluent A: ACN, eluent B: water, both eluents were acidified with formic acid 0.1% v/v). The analysis started with 5% of A (from t = 0 to t = 1 min), then A was increased to 95% (from t = 1 to t = 10 min), then kept at 95% (from t = 10 to t = 19 min), and finally returned to 5% of eluent A in 1.0 min. The flow rate was 0.6 mL/min, and injection volumes were 10 μL. The instrument operated in positive mode, and parameters were detector 1450 V, drying gas pressure 35.0 psi, desolvation temperature 300.0 °C, nebulizing gas 45.0 psi, needle 5550 V and shield 350 V. Nitrogen was used as a nebulizer gas and drying gas. Collision-induced dissociation was performed using argon as the collision gas at a pressure of 1.8 mTorr in the collision cell. The transitions as well as the capillary voltage and the collision energy used are appropriated for each tested compound. Quantification of the single compound was made by comparison with appropriate calibration curves realized with standard solutions in methanol. LC analyses of PAMPA, metabolic stability, and stability tests (in MeOH, PBS, human plasma) were performed by UV/LC–MS with an Agilent 1100 LC/MSD VL system ((G1946C) Agilent Technologies, Palo Alto, CA) using a Phenomenex Kinetex C18–100 Å (150 × 4.6 mm, 5 μm particle size) at room temperature. Analyses were carried out with the same chromatographic conditions reported above.
# Each sample was mixed at room temperature in a shaker water bath for 24 h.[62] The resulting suspension was filtered through a 0.45 μm nylon filter (Acrodisc), and the solubilized compound was quantified in triplicate using the LC–MS/MS method reported above, by comparison with the appropriate calibration curve that was obtained from samples of the compound dissolved in methanol at different concentrations.
# [11] = Stability test in human plasma; assay type: in vitro ADME; settings: 37 °C
# Method: The incubation mixture (total volume of […]) was constituted by the following components: pooled human plasma (1.5 mL, 55.7 mg protein/mL),[65] HEPES buffer (1.4 mL, 25 mM, 140 mM NaCl pH 7.4), and 100 μL of each compound in DMSO (3.0 mM). The solution was mixed in a test tube that was incubated at 37 °C. At set time points (0.0, 0.25, 0.50, 1.0, 2.0, 4.0, 8.0, and 24.0 h), samples of 100 μL were taken, mixed with 400 μL of cold acetonitrile, and centrifuged at 5000 rpm for 15 min.[66] The supernatant was removed and analyzed by UV/LC–MS. For each compound, the determination was performed in three independent experiments.
# [12] = Stability test in polar solvents; assay type: physicochemical
# Method: Each compound was dissolved at RT in MeOH or PBS (25 mM, pH 7.4) up to a final concentration of 500 μM. Aliquot samples (20 μL) were taken at fixed time points (0.0, 4.0, 8.0, and 24.0 h) and were analyzed by UV/LC–MS. For each compound, the determination was performed in three independent experiments.
# [13] = Metabolic stability in human liver microsomes; assay type: in vitro ADME; settings: 37 °C, 1 h, percentage of unmodified compound
# Method: The reaction was cooled down in ice and quenched by adding acetonitrile (1.0 mL). After centrifugation (4000 rpm for 10 min), the supernatant was taken, dried under nitrogen flow, and suspended in 100 μL of methanol and the parent drug and metabolites were subsequently determined by UV/LC–MS. The percentage of nonmetabolized compounds was calculated by comparison with reference solutions. For each compound, the determination was performed in three independent experiments.
smiles,measurement,setting,value
Nc1ccn([C@@H]2O[C@H](CO)[C@@H](O)C2(F)F)c(=O)n1 [gemcitabine],levels of active caspase-3,[1],significantly higher levels of active caspase-3
same,apoptosis fold induction/change,[2],~5 fold
same,levels of active caspase-3,[3],0.88 ng/mL
O=C(Oc1ccc([N+](=O)[O-])cc1)N1CCC(C(O)(c2ccc3c(c2)OCO3)c2ccc3c(c2)OCO3)CC1 [JZL-184],TAMRA-FP labelling of MAGL bands (ABPP),[4],can fully compete with the probe
same,scratch area closed,[5],43 ± 8%
same,levels of active caspase-3,[1],similarly effective in stimulating caspase-3
same,mechanism of inhibition (pre-incubation and dilution assays),[6],irreversible mechanism of action
same,PDAC3 cell growth inhibitory effect (cell growth curves),[7],effective in reducing PDAC3 proliferation
O=C(c1ccc(Sc2ccccc2)cc1)C1CCN(C(=O)c2cc(O)ccc2F)CC1 [Compound 5b],IC50,[8],30.5 ± 1.8 nM
same,IC50,[9],> 10000 nM
"O=C(c1ccc(Sc2cccc(C(F)(F)F)c2)cc1)C1CCN(C(=O)c2cc(O)ccc2F)CC1 [Compound 5c, reference compound]",solubility at 24 h,[10]; read-out: water solubility,< 1 ng/mL
same,solubility at 24 h,[10]; read-out: water solubility (logS),< 1.99 nM
same,stability human plasma,[11],>24 h
same,stability MeOH,"[12]; MeOH, RT",>24 h
same,stability PBS pH 7.4,"[12]; PBS pH 7.4, RT",>24 h
same,metabolic stability,[13],90.5%
